Laboratory results reported in patent publication US10344025B2, “GLS1 inhibitors for treating disease” (Board of Regents, The University of Texas System, priority 2014, dated 2019).

Tests used:
[1] = test system: A549 cells; test: Proliferation Assay (A549 viability, Cell Titer Fluor, 72 hours); format: cell-based; conditions: Homo sapiens, A549, 72 h
In short: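 A549 cells seeded at 1000 cells/well, rested 24 h, then exposed to compound in 0.5% DMSO for 72 h at 37 °C. Viability read by Cell Titer Fluor fluorescence; IC50 from four-parameter logistic fit.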

[2] = molecular target: purified recombinant human GAC (GLS1) (Homo sapiens (Human), UniProt O94925); test: GLS1 Enzymatic Activity Assay (dual-coupled enzymatic assay, resorufin/Amplex UltraRed readout); format: biochemical;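 also: glutamate from GAC coupled via glutamate oxidase and peroxidase to resorufin, read as fluorescence (ex 530, em 590 nm) kinetically or at 20 min, four-parameter logistic IC50 fit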
Chain of purified recombinant human GAC (GLS1) (O94925 other isoform, or with tags, fused parts or gaps): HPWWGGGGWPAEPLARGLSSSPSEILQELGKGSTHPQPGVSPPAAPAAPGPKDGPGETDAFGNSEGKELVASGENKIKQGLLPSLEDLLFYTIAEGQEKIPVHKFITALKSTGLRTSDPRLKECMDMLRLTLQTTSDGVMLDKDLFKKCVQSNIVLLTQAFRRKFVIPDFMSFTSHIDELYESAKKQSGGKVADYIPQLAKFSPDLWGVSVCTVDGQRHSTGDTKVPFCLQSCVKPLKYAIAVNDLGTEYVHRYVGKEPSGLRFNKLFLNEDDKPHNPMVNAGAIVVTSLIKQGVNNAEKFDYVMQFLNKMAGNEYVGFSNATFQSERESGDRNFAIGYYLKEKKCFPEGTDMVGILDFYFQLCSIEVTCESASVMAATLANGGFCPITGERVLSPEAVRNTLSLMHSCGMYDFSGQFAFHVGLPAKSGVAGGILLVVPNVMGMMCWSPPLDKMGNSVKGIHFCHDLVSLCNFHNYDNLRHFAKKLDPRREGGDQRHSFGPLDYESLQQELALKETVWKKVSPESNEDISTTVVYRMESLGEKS

Structure (SMILES)	EC50 [1]	IC50 [2]
O=C(NCc1cc(C2CC2)ccn1)c1cn(CCC(F)Cn2cc(C(=O)NCc3cncc(C(F)(F)F)c3)nn2)nn1 (stereo not shown) [Example 152, N-[(4-cyclopropylpyridin-2-yl)methyl]-1-{3-fluoro-4-[4-({[5-(trifluoromethyl)pyridin-3-yl]methyl}carbamoyl)-1H-1,2,3-triazol-1-yl]butyl}-1H-1,2,3-triazole-4-carboxamide]	< 100 nM	< 100 nM
O=C(CN1CC(F)C1)Nc1cn(CC(F)CCn2cc(C(=O)NCc3cc(C(F)(F)F)ccn3)nn2)nn1 (stereo not shown) [Example 401, 1-(3-fluoro-4-{4-[2-(3-fluoroazetidin-1-yl)acetamido]-1H-1,2,3-triazol-1-yl}butyl)-N-{[4-(trifluoromethyl)pyridin-2-yl]methyl}-1H-1,2,3-triazole-4-carboxamide]	500 to 5000 nM	100 to 500 nM
CNC(=O)c1cn(CCCCc2ccc(NC(=O)Cc3cccc(N4CCCC4)c3)nn2)nn1 [Example 565, N-methyl-1-(4-(6-(2-(3-(pyrrolidin-1-yl)phenyl)acetamido)pyridazin-3-yl)butyl)-1H-1,2,3-triazole-4-carboxamide]	100 to 500 nM	< 100 nM
O=C(NCc1cc(C(F)(F)F)ccn1)c1cn(CCCCn2cc(C(=O)N[C@@H](CO)c3ccccc3)nn2)nn1 [Example 100, 1-[4-(4-{[(1R)-2-hydroxy-1-phenylethyl]carbamoyl}-1H-1,2,3-triazol-1-yl)butyl]-N-{[4-(trifluoromethyl)pyridin-2-yl]methyl}-1H-1,2,3-triazole-4-carboxamide]	> 5000 nM	500 to 5000 nM
O=C(Cc1cc(Cl)ccc1F)Nc1cn(CCCCn2cc(C(=O)NCc3ncccc3F)nn2)nn1 [Example 387, 1-(4-{4-[2-(5-chloro-2-fluorophenyl)acetamido]-1H-1,2,3-triazol-1-yl}butyl)-N-[(3-fluoropyridin-2-yl)methyl]-1H-1,2,3-triazole-4-carboxamide]	500 to 5000 nM	100 to 500 nM
O=C(CC1CCCCC1)Nc1cn(CCCCn2cc(C(=O)NCC3CC3)nn2)nn1 [Example 305, 1-{4-[4-(2-cyclohexylacetamido)-1H-1,2,3-triazol-1-yl]butyl}-N-(cyclopropylmethyl)-1H-1,2,3-triazole-4-carboxamide]	500 to 5000 nM	500 to 5000 nM
O=C(NCc1cccc(OC(F)(F)F)c1)c1cn(CCCCn2cc(C(=O)NC[C@@H](O)c3ccccc3)nn2)nn1 [Example 138, N-[(2S)-2-hydroxy-2-phenylethyl]-1-{4-[4-({[3-(trifluoromethoxy)phenyl]methyl}carbamoyl)-1H-1,2,3-triazol-1-yl]butyl}-1H-1,2,3-triazole-4-carboxamide]	100 to 500 nM	100 to 500 nM
CNC(=O)c1cn(C[C@H](F)CCc2ccc(NC(=O)Cc3cc(C(F)(F)C4CC4)ccn3)nn2)nn1 [Example 267, (R)-1-(4-(6-(2-(4-(cyclopropyldifluoromethyl)pyridin-2-yl)acetamido)pyridazin-3-yl)-2-fluorobutyl)-N-methyl-1H-1,2,3-triazole-4-carboxamide]	< 100 nM	< 100 nM
O=C(NCc1ccccn1)c1cn(CCCCc2nnc(C(=O)NCc3cccc(OC(F)(F)F)c3)s2)nn1 [Example 65, 5-(4-{4-[(pyridin-2-ylmethyl)carbamoyl]-1H-1,2,3-triazol-1-yl}butyl)-N-{[3-(trifluoromethoxy)phenyl]methyl}-1,3,4-thiadiazole-2-carboxamide]	100 to 500 nM	< 100 nM
Cc1ccc(CC(=O)Nc2cn(CC(F)CCn3cc(C(=O)NCc4ccccn4)nn3)nn2)cn1 (stereo not shown) [Example 344, 1-(3-fluoro-4-{4-[2-(6-methylpyridin-3-yl)acetamido]-1H-1,2,3-triazol-1-yl}butyl)-N-(pyridin-2-ylmethyl)-1H-1,2,3-triazole-4-carboxamide]	> 5000 nM	100 to 500 nM
O=C(NCc1cncc(C(F)(F)F)c1)c1cn(CC(F)CCc2nnc(C(=O)NCc3cc(C(F)(F)F)ccn3)s2)nn1 (stereo not shown) [Example 485, 5-{3-fluoro-4-[4-({[5-(trifluoromethyl)pyridin-3-yl]methyl}carbamoyl)-1H-1,2,3-triazol-1-yl]butyl}-N-{[4-(trifluoromethyl)pyridin-2-yl]methyl}-1,3,4-thiadiazole-2-carboxamide]	< 100 nM	< 100 nM
Cc1ccc(CNC(=O)c2cn(CCCCc3nnc(C(=O)NCc4cccc(OC(F)(F)F)c4)s3)nn2)cn1 [Example 61]	< 100 nM	< 100 nM
O=C(Nc1nnc(CCC(F)Cn2cc(C(=O)NCc3cc(OC(F)(F)F)ccc3F)nn2)s1)c1ccncc1 (stereo not shown) [Example 594, N-(5-(3-fluoro-4-(4-((2-fluoro-5-(trifluoromethoxy)benzyl)carbamoyl)-1H-1,2,3-triazol-1-yl)butyl)-1,3,4-thiadiazol-2-yl)isonicotinamide]	500 to 5000 nM	< 100 nM
CNC(=O)c1cn(C[C@H](F)CCc2ccc(NC(=O)Cc3cc(OC4CCOCC4)ccn3)nn2)nn1 [Example 271, (R)-1-(2-fluoro-4-(6-(2-(4-((tetrahydro-2H-pyran-4-yl)oxy)pyridin-2-yl)acetamido)pyridazin-3-yl)butyl)-N-methyl-1H-1,2,3-triazole-4-carboxamide]	< 100 nM	< 100 nM
O=C(Cc1cccc(OC(F)(F)F)c1)Nc1cn(CC(F)CCn2cc(C(=O)NCc3cc(C(F)(F)F)ccn3)nn2)nn1 (stereo not shown) [Example 394]	< 100 nM	< 100 nM
O=C(NCc1cc(C(F)(F)F)ccn1)c1cn(CCCCn2cc(C(=O)NCc3cc(C(F)(F)F)ccn3)nn2)nn1 [Example 158, N-{[4-(trifluoromethyl)pyridin-2-yl]methyl}-1-{4-[4-({[4-(trifluoromethyl)pyridin-2-yl]methyl}carbamoyl)-1H-1,2,3-triazol-1-yl]butyl}-1H-1,2,3-triazole-4-carboxamide]	< 100 nM	< 100 nM
O=C(NCc1ncccc1F)c1cn(CCC(F)Cn2cc(C(=O)NCc3cccc(OC(F)(F)F)c3)nn2)nn1 (stereo not shown) [Example 440, 1-{3-fluoro-4-[4-({[3-(trifluoromethoxy)phenyl]methyl}carbamoyl)-1H-1,2,3-triazol-1-yl]butyl}-N-[(3-fluoropyridin-2-yl)methyl]-1H-1,2,3-triazole-4-carboxamide]	100 to 500 nM	< 100 nM
CNC(=O)c1nnc(CCC(F)Cn2cc(C(=O)NCc3ccccn3)nn2)s1 (stereo not shown) [Example 557, 5-(3-fluoro-4-{4-[(pyridin-2-ylmethyl)carbamoyl]-1H-1,2,3-triazol-1-yl}butyl)-N-methyl-1,3,4-thiadiazole-2-carboxamide]	500 to 5000 nM	500 to 5000 nM
O=C(Cc1cc(OC(F)(F)F)ccc1F)Nc1cn(CCCCn2cc(C(=O)NCc3cccc(OC(F)(F)F)c3)nn2)nn1 [Example 380, 1-[4-(4-{2-[2-fluoro-5-(trifluoromethoxy)phenyl]acetamido}-1H-1,2,3-triazol-1-yl)butyl]-N-{[3-(trifluoromethoxy)phenyl]methyl}-1H-1,2,3-triazole-4-carboxamide]	< 100 nM	< 100 nM
O=C(Cc1cccc(OC(F)(F)F)c1)Nc1cn(CCCCn2cc(C(=O)NCc3cc(Cl)ccc3F)nn2)nn1 [Example 334, N-[(5-chloro-2-fluorophenyl)methyl]-1-[4-(4-{2-[3-(trifluoromethoxy)phenyl]acetamido}-1H-1,2,3-triazol-1-yl)butyl]-1H-1,2,3-triazole-4-carboxamide]	< 100 nM	< 100 nM
